From patent US20260215425A1, “NITRIFICATION INHIBITORS” (The University of Melbourne, priority 2022, published 2026)

Tests used:
[1] = test system: soils B-E; test: soil incubation, N2O production in soils B-E
Experimental: Soil incubations were performed in three replicates. Each sample consisted of 6 g of sieved soil (2 mm). The soil was air-dried after collection and pre-incubated prior to the experiment for seven days at 50% water holding capacity (WHC). The soil was transferred to a gas chromatography vial (22 mL volume, clear glass, Macherey-Nagel, Germany) and compacted densely to allow 5.5-6.2 cm headspace. The soil in the vials was incubated for a total of 21 days at a constant temperature of 21° C. with an open lid to ensure gas circulation. The control incubations contained ‘untreated’ soil (deionized H2O only) and ‘fertiliser only’ soil ((NH4)2SO4; 50 mg kg^−1 soil) and accompanied each measurement. (NH4)2SO4 was applied as an aqueous solution ([…]) and introduced on the soil surface to mimic field conditions. Three inhibitor solutions were prepared from DMP and 4-MPT at concentrations of 0.5 mol %, 2.5 mol % and 5 mol % of applied fertiliser-N and applied on the soil surface. The soils reached 60% WHC after the treatments had been applied and were kept at that moisture level by periodically adding deionized water to compensate for evaporation losses. At the day of measurement (day 1, 3, 5, 7, 14 and 21 after fertilization) the vials were closed gas-tight with a rubber septum and aluminium lid and opened again after each measurement. The N2O emission was analysed using a gas chromatograph equipped with an electron capture detector and flame ionization detector (GC-ECD/FID; Clarus 580, Perkin Elmer). A linear regression slope was used to calculate N2O—N production rates, F, according to eqn. 5:
where ΔC/Δt represents the change of the N2O concentration over the time interval t in ppbv, V represents the headspace volume in L, M represents the molar mass of N in N2O, m represents the amount of soil in g dry weight, Vm represents the molar volume of ideal gases (22.414 L mol^−1) at 0° C. and 101.325 kPa, corrected for the gas sampler using T0 (273.15 K) and Ta (air temperature in K).

[2] = test system: N. europaea; test: standard nitrification inhibition assay (NO2- production, Griess); assay type: cell-based, Nitrosomonas europaea; details: [NH4+]=3 mM, [inhibitor]=0.3 mM (10 mol %), pH 7.5, 30° C., 60 min
Experimental: (§1) Cells of N. multiformis and N. europaea were cultivated to the mid-exponential growth phase (OD600=0.1, [NO2^−] approximately 800 μM) and harvested by filtration onto 0.2 μm membrane filters (Mixed Cellulose Ester (MCE), Sigma Aldrich). The cells were washed with 2×100 mL of 0.1 M sodium phosphate buffer (NaPB), containing 0.2 mM MgSO4 at pH 7.5. The cells were washed from the filter paper by transferring it to a sterile 50 mL tube and resuspending in NaPB (15 mL), followed by 5 s of vortexing (Ratek, Australia) and 3 s of sonication (Vevor, Australia). […] Experiments were performed in triplicate.
(§2) In a deep 96-well plate (2 mL capacity), 980 μL of the bacterial inoculum (OD600=0.03) was added to the inhibitor (10 μL, 30 mmol L^−1 in Milli-Q water), the solutions were mixed thoroughly and pre-incubated in the dark for 5 minutes at 100 rpm and 30° C. (NH4)2SO4 (10 μL, 150 mM, from a prepared sterile solution containing 19.8 g L^−1 (NH4)2SO4 in Milli-Q water) was then added using a multi-channel pipette. The plate was covered with a with an O2 permeable membrane to ensure aeration (Breathe-Easy® sealing membrane, Sigma Aldrich) and incubated in a temperature-regulated rotary incubator (Ratek, Australia) in the dark for 60 minutes at 30° C. and 100 rpm. An aliquot of the reaction solution ([…]) was transferred to a 96-well spectrophotometric plate to which 50 µL of Griess reagent was added. The colour was allowed to develop for 15 minutes at room temperature, and the absorbance was measured at 540 nm. Each assay was accompanied by control treatments to determine the 0% and 100% NO2 signal. The percentage inhibition was calculated according to eqn. 1 from the NO2 production of the cells in NaPB (i) without additive (‘untreated cells’: 0% signal), (ii) with [NH4^+]=3 mM (‘uninhibited’ cells: 100% signal) and (iii) with [NH4^+]=3 mM and [inhibitor]=0.3 mM and 0.03 mM (10 mol % and 1 mol % of [NH4^+], ‘inhibited cells’). Experiments were performed in triplicate.

[3] = test system: N. multiformis; test: as above; assay type: cell-based, Nitrosospira multiformis; details: [NH4+]=3 mM, [inhibitor]=0.3 mM (10 mol %), pH 7.5, 30° C., 60 min
Experimental: as §1, §2

## Cc1c[nH]nc1C [DMP, 3,4-dimethylpyrazole, reference compound]
[1]; Soil B, 0.5 mol %, Day 1
  N2O production: 0.318 ± 0.030 μg g^−1 soil h^−1
[1]; Soil B, 0.5 mol %, Day 3
  N2O production: 0.189 ± 0.006 μg g^−1 soil h^−1
[1]; Soil B, 0.5 mol %, Day 5
  N2O production: 0.151 ± 0.015 μg g^−1 soil h^−1
[1]; Soil B, 0.5 mol %, Day 7
  N2O production: 0.086 ± 0.043 μg g^−1 soil h^−1
[1]; Soil B, 0.5 mol %, Day 14
  N2O production: 0.136 ± 0.006 μg g^−1 soil h^−1
[1]; Soil B, 0.5 mol %, Day 21
  N2O production: 0.019 ± 0.019 μg g^−1 soil h^−1
[1]; Soil B, 2.5 mol %, Day 1
  N2O production: 0.224 ± 0.013 μg g^−1 soil h^−1
[1]; Soil B, 2.5 mol %, Day 3
  N2O production: 0.124 ± 0.008 μg g^−1 soil h^−1
[1]; Soil B, 2.5 mol %, Day 5
  N2O production: 0.060 ± 0.030 μg g^−1 soil h^−1
[1]; Soil B, 2.5 mol %, Day 7
  N2O production: 0.045 ± 0.023 μg g^−1 soil h^−1
[1]; Soil B, 2.5 mol %, Day 14
  N2O production: 0.113 ± 0.006 μg g^−1 soil h^−1
[1]; Soil B, 2.5 mol %, Day 21
  N2O production: 0.127 ± 0.000 μg g^−1 soil h^−1
[1]; Soil B, 5 mol %, Day 1
  N2O production: 0.209 ± 0.054 μg g^−1 soil h^−1
[1]; Soil B, 5 mol %, Day 3
  N2O production: 0.067 ± 0.017 μg g^−1 soil h^−1
[1]; Soil B, 5 mol %, Day 5
  N2O production: 0.058 ± 0.014 μg g^−1 soil h^−1
[1]; Soil B, 5 mol %, Day 7
  N2O production: 0.020 ± 0.010 μg g^−1 soil h^−1
[1]; Soil B, 5 mol %, Day 14
  N2O production: 0.052 ± 0.003 μg g^−1 soil h^−1
[1]; Soil B, 5 mol %, Day 21
  N2O production: 0.037 ± 0.019 μg g^−1 soil h^−1
[1]; Soil C, 0.5 mol %, Day 1
  N2O production: 0.283 ± 0.008 μg g^−1 soil h^−1
[1]; Soil C, 0.5 mol %, Day 3
  N2O production: 0.183 ± 0.003 μg g^−1 soil h^−1
[1]; Soil C, 0.5 mol %, Day 5
  N2O production: 0.081 ± 0.041 μg g^−1 soil h^−1
[1]; Soil C, 0.5 mol %, Day 7
  N2O production: 0.162 ± 0.037 μg g^−1 soil h^−1
[1]; Soil C, 0.5 mol %, Day 14
  N2O production: 0.105 ± 0.007 μg g^−1 soil h^−1
[1]; Soil C, 0.5 mol %, Day 21
  N2O production: 0.101 ± 0.011 μg g^−1 soil h^−1
[1]; Soil C, 2.5 mol %, Day 1
  N2O production: 0.276 ± 0.006 μg g^−1 soil h^−1
[1]; Soil C, 2.5 mol %, Day 3
  N2O production: 0.161 ± 0.006 μg g^−1 soil h^−1
[1]; Soil C, 2.5 mol %, Day 5
  N2O production: 0.133 ± 0.006 μg g^−1 soil h^−1
[1]; Soil C, 2.5 mol %, Day 7
  N2O production: 0.113 ± 0.005 μg g^−1 soil h^−1
[1]; Soil C, 2.5 mol %, Day 14
  N2O production: 0.086 ± 0.006 μg g^−1 soil h^−1
[1]; Soil C, 2.5 mol %, Day 21
  N2O production: 0.089 ± 0.005 μg g^−1 soil h^−1
[1]; Soil C, 5 mol %, Day 1
  N2O production: 0.228 ± 0.017 μg g^−1 soil h^−1
[1]; Soil C, 5 mol %, Day 3
  N2O production: 0.125 ± 0.006 μg g^−1 soil h^−1
[1]; Soil C, 5 mol %, Day 5
  N2O production: 0.099 ± 0.008 μg g^−1 soil h^−1
[1]; Soil C, 5 mol %, Day 7
  N2O production: 0.098 ± 0.010 μg g^−1 soil h^−1
[1]; Soil C, 5 mol %, Day 14
  N2O production: 0.085 ± 0.009 μg g^−1 soil h^−1
[1]; Soil C, 5 mol %, Day 21
  N2O production: 0.095 ± 0.000 μg g^−1 soil h^−1
[1]; Soil D, 0.5 mol %, Day 1
  N2O production: 0.131 ± 0.001 μg g^−1 soil h^−1
[1]; Soil D, 0.5 mol %, Day 3
  N2O production: 0.133 ± 0.003 μg g^−1 soil h^−1
[1]; Soil D, 0.5 mol %, Day 5
  N2O production: 0.063 ± 0.003 μg g^−1 soil h^−1
[1]; Soil D, 0.5 mol %, Day 7
  N2O production: 0.112 ± 0.008 μg g^−1 soil h^−1
[1]; Soil D, 0.5 mol %, Day 14
  N2O production: 0.072 ± 0.009 μg g^−1 soil h^−1
[1]; Soil D, 0.5 mol %, Day 21
  N2O production: 0.098 ± 0.011 μg g^−1 soil h^−1
[1]; Soil D, 2.5 mol %, Day 1
  N2O production: 0.073 ± 0.037 μg g^−1 soil h^−1
[1]; Soil D, 2.5 mol %, Day 3
  N2O production: 0.120 ± 0.005 μg g^−1 soil h^−1
[1]; Soil D, 2.5 mol %, Day 5
  N2O production: 0.067 ± 0.006 μg g^−1 soil h^−1
[1]; Soil D, 2.5 mol %, Day 7
  N2O production: 0.115 ± 0.012 μg g^−1 soil h^−1
[1]; Soil D, 2.5 mol %, Day 14
  N2O production: 0.070 ± 0.006 μg g^−1 soil h^−1
[1]; Soil D, 2.5 mol %, Day 21
  N2O production: 0.063 ± 0.003 μg g^−1 soil h^−1
[1]; Soil D, 5 mol %, Day 1
  N2O production: 0.114 ± 0.015 μg g^−1 soil h^−1
[1]; Soil D, 5 mol %, Day 3
  N2O production: 0.112 ± 0.006 μg g^−1 soil h^−1
[1]; Soil D, 5 mol %, Day 5
  N2O production: 0.039 ± 0.021 μg g^−1 soil h^−1
[1]; Soil D, 5 mol %, Day 7
  N2O production: 0.102 ± 0.014 μg g^−1 soil h^−1
[1]; Soil D, 5 mol %, Day 14
  N2O production: 0.056 ± 0.004 μg g^−1 soil h^−1
[1]; Soil D, 5 mol %, Day 21
  N2O production: 0.069 ± 0.007 μg g^−1 soil h^−1
[1]; Soil E, 0.5 mol %, Day 1
  N2O production: 0.053 ± 0.002 μg g^−1 soil h^−1
[1]; Soil E, 0.5 mol %, Day 3
  N2O production: 0.037 ± 0.006 μg g^−1 soil h^−1
[1]; Soil E, 0.5 mol %, Day 5
  N2O production: 0.015 ± 0.008 μg g^−1 soil h^−1
[1]; Soil E, 0.5 mol %, Day 7
  N2O production: 0.000 ± 0.000 μg g^−1 soil h^−1
[1]; Soil E, 0.5 mol %, Day 14
  N2O production: 0.000 ± 0.000 μg g^−1 soil h^−1
[1]; Soil E, 0.5 mol %, Day 21
  N2O production: 0.000 ± 0.000 μg g^−1 soil h^−1
[1]; Soil E, 2.5 mol %, Day 1
  N2O production: 0.080 ± 0.009 μg g^−1 soil h^−1
[1]; Soil E, 2.5 mol %, Day 3
  N2O production: 0.014 ± 0.014 μg g^−1 soil h^−1
[1]; Soil E, 2.5 mol %, Day 5
  N2O production: 0.000 ± 0.000 μg g^−1 soil h^−1
[1]; Soil E, 2.5 mol %, Day 7
  N2O production: 0.000 ± 0.000 μg g^−1 soil h^−1
[1]; Soil E, 2.5 mol %, Day 14
  N2O production: 0.008 ± 0.008 μg g^−1 soil h^−1
[1]; Soil E, 2.5 mol %, Day 21
  N2O production: 0.000 ± 0.000 μg g^−1 soil h^−1
[1]; Soil E, 5 mol %, Day 1
  N2O production: 0.045 ± 0.011 μg g^−1 soil h^−1
[1]; Soil E, 5 mol %, Day 3
  N2O production: 0.011 ± 0.011 μg g^−1 soil h^−1
[1]; Soil E, 5 mol %, Day 5
  N2O production: 0.000 ± 0.000 μg g^−1 soil h^−1
[1]; Soil E, 5 mol %, Day 7
  N2O production: 0.000 ± 0.000 μg g^−1 soil h^−1
[1]; Soil E, 5 mol %, Day 14
  N2O production: 0.007 ± 0.007 μg g^−1 soil h^−1
[1]; Soil E, 5 mol %, Day 21
  N2O production: 0.000 ± 0.000 μg g^−1 soil h^−1
[1]; soil B, 0.5 mol % (lowest application rate), day 1
  N2O production rate: 0.32 ng g^−1 soil h^−1
[1]; soil B, 0.5 mol %, day 1
  N2O production rate relative to the uninhibited soil: approximately 50%
[1]; soil B, 2.5 mol %
  N2O production rate relative to that in the absence of the inhibitor: approximately 67%
[1]; soil B, 5 mol %
  N2O production rate relative to that in the absence of the inhibitor: approximately 67%
[1]; soil C, 0.5 mol % and 2.5 mol %, first two weeks (P>0.05)
  N2O formation rate compared to the uninhibited soil: did not show a significantly reduced N2O formation rate
[1]; soil C, highest application rate (5 mol %), day 21
  N2O production rate: 0.095 ng g^−1 soil h^−1
[1]; soil D (P>0.05)
  N2O production rates compared to the uninhibited soil: No significant difference
[1]; soil E, 5 mol %
  N2O production beyond day 5: no N2O production was detected

## CCCCn1cc(CCC)nn1 [Compound N013]
[2]
  % Inhibition NE: 60 ± 1%
[3]
  % Inhibition NM: 54 ± 2%
